In ChEMBL document CHEMBL5137114, “Discovery of IHMT-MST1-58 as a Novel, Potent, and Selective MST1 Inhibitor for the Treatment of Type 1/2 Diabetes” (J Med Chem, 2022):
Calls of active or inactive are those of the source. The calls are words filed in the database; no cut-off is given here.

Tests used:
[1] = biological target: T1, Serine/threonine-protein kinase 4 (Homo sapiens, UniProt Q13043); experiment: Binding affinity to wild-type human full length MST1 (M1 to F487 residues) expressed in bacterial expression system by Kinomescan method
T1 sequence (Q13043 whole entry): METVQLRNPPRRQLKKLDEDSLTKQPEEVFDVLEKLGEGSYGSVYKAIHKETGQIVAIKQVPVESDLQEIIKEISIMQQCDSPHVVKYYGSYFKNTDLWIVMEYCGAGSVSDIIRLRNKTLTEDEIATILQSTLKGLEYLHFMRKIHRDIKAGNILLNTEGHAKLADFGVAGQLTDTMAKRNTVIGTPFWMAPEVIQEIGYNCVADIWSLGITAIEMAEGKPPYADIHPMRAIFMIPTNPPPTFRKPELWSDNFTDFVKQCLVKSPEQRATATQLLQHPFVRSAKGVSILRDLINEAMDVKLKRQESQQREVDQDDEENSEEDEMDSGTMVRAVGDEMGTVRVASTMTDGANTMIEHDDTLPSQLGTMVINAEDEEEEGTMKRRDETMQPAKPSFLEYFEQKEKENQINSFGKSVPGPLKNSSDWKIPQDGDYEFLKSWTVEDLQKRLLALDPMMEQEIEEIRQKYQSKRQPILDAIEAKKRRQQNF

[2] = biological target: T2, Serine/threonine-protein kinase 3 (Homo sapiens) (UniProt Q13188); experiment: Inhibition of recombinant full length N-terminal GST -tagged human MST2 expressed in baculovirus infected Sf9 insect cells using KKSRGDYMTMQIG as substrate incubated for 1 hr in presence of ATP by ADP-Glo luminescent assay relative to control; conditions: concentration not given here
T2 sequence (whole entry): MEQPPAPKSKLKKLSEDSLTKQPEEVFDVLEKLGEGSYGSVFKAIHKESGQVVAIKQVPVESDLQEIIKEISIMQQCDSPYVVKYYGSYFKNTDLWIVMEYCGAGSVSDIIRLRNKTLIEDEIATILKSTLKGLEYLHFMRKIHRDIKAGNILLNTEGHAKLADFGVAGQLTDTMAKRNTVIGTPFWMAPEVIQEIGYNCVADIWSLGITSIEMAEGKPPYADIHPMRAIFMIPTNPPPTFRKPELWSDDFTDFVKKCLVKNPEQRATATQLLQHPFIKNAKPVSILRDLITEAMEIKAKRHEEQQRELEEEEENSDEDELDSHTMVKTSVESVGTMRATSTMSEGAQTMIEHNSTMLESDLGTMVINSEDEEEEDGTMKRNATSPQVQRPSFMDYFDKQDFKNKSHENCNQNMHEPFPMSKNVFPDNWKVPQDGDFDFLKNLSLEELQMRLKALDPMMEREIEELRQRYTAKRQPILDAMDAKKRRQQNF

[3] = biological target: T3, Serine/threonine-protein kinase Nek3 (Homo sapiens) (UniProt P51956); experiment: Inhibition of recombinant full length N-terminal GST -tagged human NEK3 expressed in baculovirus expression system using S2 as substrate incubated for 2 hrs by HTRF assay relative to control; conditions: Sf9, concentration not given here
T3 sequence (whole entry): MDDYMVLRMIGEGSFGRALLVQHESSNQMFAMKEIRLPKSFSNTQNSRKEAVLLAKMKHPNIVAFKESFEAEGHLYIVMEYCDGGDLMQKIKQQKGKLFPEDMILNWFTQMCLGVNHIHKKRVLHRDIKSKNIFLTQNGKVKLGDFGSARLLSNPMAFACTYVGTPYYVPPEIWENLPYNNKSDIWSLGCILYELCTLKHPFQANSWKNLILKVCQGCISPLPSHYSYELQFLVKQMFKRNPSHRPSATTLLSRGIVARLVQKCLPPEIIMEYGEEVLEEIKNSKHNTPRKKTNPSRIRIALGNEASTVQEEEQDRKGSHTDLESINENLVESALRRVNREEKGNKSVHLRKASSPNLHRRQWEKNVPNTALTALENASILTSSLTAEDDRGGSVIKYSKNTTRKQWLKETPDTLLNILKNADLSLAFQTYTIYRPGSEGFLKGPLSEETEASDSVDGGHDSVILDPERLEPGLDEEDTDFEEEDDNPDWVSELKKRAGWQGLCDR

[4] = AUC (0 to t) in mouse at 1 mg/kg, iv measured up to 12 hrs by LC-MS/MS analysis; format: ADME, organism-based; parameters: time < 12 hrs, dose 1 mg/kg, route iv; conditions: in vivo
[5] = Cmax in mouse at 1 mg/kg, iv measured up to 12 hrs by LC-MS/MS analysis; format: ADME, organism-based; parameters: time < 12 hrs, dose 1 mg/kg, route iv; conditions: in vivo
[6] = AUC (0 to t) in Sprague-Dawley rat at 1 mg/kg, iv measured up to 12 hrs by LC-MS/MS analysis; format: ADME, organism-based; parameters: dose 1 mg/kg, time < 12 hrs, route iv; conditions: in vivo
[7] = Oral bioavailability in Beagle dog at 10 mg/kg measured up to 24 hrs by LC-MS/MS analysis; format: ADME, organism-based, Canis lupus familiaris; conditions: in vivo
Mus musculus [8] = experiment: Antidiabetic activity in 12 to 14 hrs fasted multi low dose STZ-induced C57BL/6J mouse model of type 1 diabetes assessed as reduction on blood glucose at 50 mg/kg, po qd pretreated with compound followed by glucose challenge and measured upto 180 mins by IPGTT assay; format: functional, organism-based
Mus musculus [9] = experiment: Antidiabetic activity against high fat diet-STZ-induced C57BL/6J mouse model of type 2 diabetes assessed as improvement in food intake at 50 mg/kg, po qd administered upto 106 days in presence of metformin; format: functional, organism-based; conditions: time <= 106.0 day
[10] = test system: Serine/threonine-protein kinase 4 (Rattus norvegicus); experiment: Inhibition of INF-gamma-stimulated MST1 phosphorylation in rat RIN-m5F cells incubated for 12 hrs by Western blotting analysis; conditions: dose 0.1-10 µM, DDE = dose-dependent effect
[11] = test system: Serine/threonine-protein kinase 4 (Rattus norvegicus); experiment: Inhibition of TNF-alpha-stimulated MST1 in rat INS1 cells assessed as reduction in MOB1 autophosphorylation incubated for 12 hrs by Western blotting analysis; conditions: dose 0.1-10 µM, DDE = dose-dependent effect

Kd [1]: 240 nM
inhibition [2]: 52%
inhibition [3]: 0.85%
AUC(0-t) at 12 h [4]: 501 ng·h/mL
Cmax [5]: 1240 ng/mL
AUCt [6]: 2553 ng·h/mL
bioavailability [7]: 106%
inhibition [10]: Dde
inhibition [11]: Dde
Compound: Cc1ccccc1C1C(=O)N(C)c2cnc(Nc3ccc(S(N)(=O)=O)cc3)nc2N1C (stereo unspecified)
Activity (Mus musculus [8]): Active
Activity (Mus musculus [9]): Active
